Results on one compound are retold here after patent publication US20170096708A1, “DIAGNOSTIC METHOD” (Convergence Pharmaceuticals Limited, priority 2014, published 2017).

For this assay, the system named is trigeminal neuralgia (TGN) patients. Nature of the assay: 7 week randomized withdrawal trial with trigeminal neuralgia (TGN) patients. Format: in vivo, human. An excerpt: CNV1014802 is a novel Nav1.7 selective state-dependent sodium channel blocker that is being assessed in the treatment of trigeminal neuralgia. The trial used a randomized withdrawal design to assess efficacy in this rare condition and comprised a 21-day open-label phase followed by a randomized 28-day placebo-controlled phase for responders as described in Zakrzewska et al., (2013) Trials 14:402). Patients participated in an initial open-label treatment period of 21 days of CNV1014802 using 150 mg three times daily. Responders were then randomized to 28 days of CNV1014802 150 mg three times daily or placebo. A responder at the end of the open-label period was defined as a patient with one of the following: • 1) a 30% or more decrease in the total number of paroxysms over the last 7 days of the open-label phase as compared to the total number recorded in the 7-day baseline phase (day-7 to -1 prior to start of study medication, Run in); and/or • 2) a 30% reduction in the mean severity of pain experienced during the paroxysm over the last 7 days of the open-label phase as compared to the total number recorded in the 7-day baseline phase (day-7 to -1 prior to start of study medication, run in); and/or • 3) a Patient Global Improvement of Change rating of much improved/very much improved. Responders were randomized to CNV1014802 or placebo, in a 1:1 ratio. During the double-blind randomized phase, patients were evaluated at each clinic visit, which occurred every 7 days to determine whether they met the failure criteria in the double-blind treatment period. […]

Counter-ions that a name gives are not always drawn.

Turning to `NC(=O)[C@@H]1CC[C@H](c2ccc(OCc3ccccc3F)cc2)N1` [CNV1014802, (5R)-5-(4-{[(2-fluorophenyl)methyl]oxy}phenyl)-L-prolinamide hydrochloride salt], the “reduction in pain severity” value (150 mg three times daily, final week of double-blind (week 7) vs 7 day run-in, LOCF, compared to placebo group, p=0.04, FIG. 1) is “superior”. The “reduction in the number of paroxysms” value (150 mg three times daily, final week of double-blind (week 7) vs 7 day run-in, LOCF, compared to placebo group, p=0.08, FIG. 1) was “superior”. Further, the “response to treatment in patients with genetic variations within the CACNA1A gene and/or the CACNA1B gene” value (all patients with genetic variations, responder criteria of the 21-day open-label phase) was “responded to treatment”.
